Here are results for 60 molecules from a melting point compilation (Tetko et al.; mined from patent text by program, amines drawn as free bases though some values may be those of a salt).

The structures appear in SMILES notation.

As a reminder, the melting point is the temperature of the solid-liquid transition. The molecule `CCc1[nH]n(C2CCCC2)c2nc(-c3ccnc4ccccc34)nc(=O)c1-2` came in with a melting point of 205 to 206 °C.
As to `COc1ccccc1Oc1c(NS(=O)(=O)c2ccc(C(C)(C)C)cc2)nc(SC)nc1OCCO`, the melting point fell in the range of 139 to 140 °C.
For the molecule `CCN1C(=O)C(C)(C(=O)O)Oc2ccccc21` (stereo not given), the melting point lay within 164 to 168 °C.
The value for `FC(F)(F)COc1cc(-c2cc(C(F)(F)F)n3ncc(-c4ccncc4)c3n2)ccc1C(F)(F)F` was 251 °C; that for `CCCCCCCCCCCC(CC1OC(=O)C1CCCCCC)OC(=O)C(N)CC(C)C` (stereo not given) was 27 to 30 °C; that for `CCN(CC)CCCC(=O)c1ccc2c(c1)Cc1cc(C(=O)CCCN(CC)CC)ccc1-2` was 79 to 81 °C.
In turn, `COc1ccc(-c2cncc(OC3SCC(O)C(O)C3O)c2)cc1OC` (stereo not given) had a melting point of 211 °C.
The value for `OC1(C(F)(F)F)CC(c2ccc(Cl)cc2)=NN1Cc1cccnc1` (stereo not given) was 158 to 160 °C.
The value for `Cn1cc2c3c(c(Cl)cc2n1)CCC3=O` was 207 to 209 °C; that for `N#CN=C(Nc1cnc(Cl)c(N)c1)NC1(c2ccccc2)CCC1` was 220 to 221 °C.
As to `O=C(O)CCSC(c1ccccc1)(c1ccccc1)c1ccccc1`, the melting point was 205 to 208 °C.
The value for `COc1cc2c(c3c1OC(C)(C)C3)C(c1ccccc1)=NC(CN1C(=O)c3ccccc3C1=O)C2` (stereo not given) was 228 to 229 °C; that for `CCOC(=O)c1oc(Oc2ccccc2)nc1C(F)(F)F` was 75 to 77 °C; that for `COc1cc(OC)nc(Oc2cccc3c2C(=O)OC3C#N)n1` (stereo not given) was 157 to 159 °C.
The figure for `CCc1cc(C(=O)c2ccccc2Cl)c(-n2c(C)nnc2CNC(=O)c2c[nH]c3ccccc23)s1` is 140 to 145 °C; for `CC(=C1SC(=O)NC1=O)c1ccc(OCCOc2c(-c3ccc(F)c(F)c3)n(C)c3cc(Cl)ccc3c2=O)cc1` it is 296 to 298 °C; for `C#CCOc1cc(OCC=C)ccc1-c1nc2cnncc2[nH]1` it is 265 °C.
The value for `CC(C)(C)OC(=O)NCCc1ccc(OCCC2Oc3ccccc3N(Cc3cccc(Cl)c3)C2=O)cc1` (stereo not given) was 91 to 92 °C; that for `CCCCNc1c(N)c(S)nc(C)c1C(=O)OCC` was 103 to 105 °C; that for `O=C(COc1cc(-c2cccs2)nc2ccccc12)N1CCOCC1` was 198 °C.
As to `COc1cccc(OC)c1-c1nc2c(N[C@H]3[C@@H](C(N)=O)[C@@H]4C=C[C@H]3C4)c(Br)cnc2[nH]1`, the melting point was in the range of 194 to 197 °C.
The figure for `CCOC(=O)c1cnc(C)nc1NCc1ccc(-c2ccccc2-c2nnnn2C(c2ccccc2)(c2ccccc2)c2ccccc2)cc1` is 155 to 156 °C.
The value for `NC1(C2CCCC2)NC=Nc2[nH]cc(-c3cccc(Oc4ccccc4)c3)c21` (stereo not given) was 128 °C; that for `O=C1[C@H]2CCC[C@H]2N(C(=O)CBr)c2ccc(Cl)cc2N1Cc1ccccc1` (relative stereo) was 163 to 164 °C; that for `COc1ccc(C=C2c3ccccc3C(=NOCC(=O)NCC(C)(C)SN=O)c3ccccc32)cc1O` was 143 to 145 °C.
The figure for `Cc1csc(C(=O)OC(C)C)c1N` is 40 °C; for `COC(=O)C(NC(=O)N1C2CCC(C2)N1CC(O)C(Cc1ccccc1)NC(=O)C(NOCc1ccccn1)C(C)C)C(C)C` (mixture of isomers) it is 79 to 84 °C; for `Cc1cccc(-c2n[nH]cc2-c2ccc(F)c(-c3cn(CCO)cn3)c2)n1` it is 248 °C.
Consider `CC12CCC(=O)C=C1CCC1C2CCC2(C)C(n3ccnc3)=CCC12` (stereo not given), for which the melting point lay within 147 to 150 °C.
The figure for `Cc1ccc(C(C)Oc2cnn(C(C)(C)C)c(=O)c2Cl)cc1` (stereo not given) is 104 to 106 °C; for `COc1cc(NC(=O)C(C#N)=CNc2ccc(OC)c(I)c2)c(Cl)cc1Cl` it is 289 to 290 °C.
The figure for `O=C(Cl)N1CCC(Oc2ccc(F)c(Cl)c2)C1` (stereo not given) is 63 to 65 °C.
The value for `Cc1c(NC(=O)c2ccc(OCc3ccccc3)cc2F)ccc2cc(CN3CCCC3)cnc12` was 176 to 177 °C; that for `O=C(O)CCCCCCCCCCc1cccs1` was 41 to 42 °C; that for `O=C(Cc1ccc(Cl)cc1)Nc1ccc(-n2nc(C(F)(F)F)cc2C(F)(F)F)cc1` was 122 to 124 °C.
Turning to `CCN(CC)CC(O)c1c[nH]c2c1ccc1c3ccccc3[nH]c12` (stereo not given), the melting point fell in the range of 148 to 150 °C.
`CCn1cnc2c(C#N)nc(Cl)cc21`: the melting point came to 138 °C.
As to `CC(C)(C)C(=O)Nc1ccc(-c2ccncc2)cc1`, the melting point is 274 to 279 °C.
For the molecule `O=C(O)C=Cc1ccc(OCCC(c2ccccc2)(c2ccccc2)c2ccccc2)cc1`, the melting point lay in the range of 207 to 209 °C.
The value for `CN(C(=O)c1ccccn1)c1cccc(F)c1` was 75 to 78 °C; that for `CCN(CC)CCNC(=O)c1cc(I)cc2c(Cl)ccnc12` was 76 to 78 °C.
In turn, `Clc1ccc(Cn2cc(CCn3ccnc3)c3ccccc32)cc1` returned a melting point of 78 to 80 °C.
The molecule `O=C(c1ccc(Cl)cc1)[C@H]1C[C@H]1C(=O)O` (relative stereo) gave a melting point of 150 to 153 °C.
The value for `COCCN1CCc2ccc(Nc3ncc(Cl)c(N[C@@H]4CCC[C@H]4NS(C)(=O)=O)n3)cc2CC1` (relative stereo) was 74 °C; that for `CON(C)C(=O)[C@H]1CCn2c(cc3ccccc32)C1` was 78 to 80 °C.
With `CCCCCCCCCCCCCCCCOC(=O)NCCN1CCOCC1`, the melting point was 65 °C.
The figure for `O=C(NCCO)c1cnc(-c2ccccc2)s1` is 149 to 152 °C.
The value for `CC(C)C1Cc2cnc3c(c2C1(O)CCN)CCO3` (stereo not given) was 142 to 143 °C.
The value for `C#CCc1c(C)nc2c(OCc3c(C)cccc3NC(=O)C(C)=O)cccn12` was 158 to 160 °C.
`CCOP(=S)(OCC)ON=C1C=CC(=C(C#N)c2ccccc2C)S1` came in with a melting point of 86 to 87 °C.
`CSc1cc2ncnc(Nc3cccc(C)c3)c2cc1[N+](=O)[O-]` yielded a melting point of 230 to 231 °C.
The figure for `CN(C)c1cccc(NC(=O)NC2C(=O)N(CC34CC5CC(CC(C5)C3)C4)c3ccccc3N(c3ccccc3)C2=O)c1` (stereo not given) is 263 to 265 °C.
`CC(CC(=O)O)c1ccc(-c2ccccc2)c(Cl)c1` (stereo not given): the melting point fell in the range of 66 to 67 °C.
The figure for `C[C@@H](NC(=O)c1c[nH]c2ncc(-c3nn(C)c4cc(C(C)(C)C)ccc34)nc12)C(=O)N1CC(C#N)C1` is 180 to 195 °C; for `Cc1nc(-n2ccc(OCc3ccc(C(F)(F)F)o3)cc2=O)sc1C(=O)NCc1ccccc1` it is 214 to 216 °C; for `CSCCCn1cc(C(=O)NCc2ccc(Cl)cc2)c(=O)c2cc(CN3CCOCC3)ccc21` it is 102 to 104 °C.
The value for `O=C(CN1CS(=O)CC1=O)N1CCN(C(c2ccccc2)c2ccccc2)CC1` (stereo not given) was 225 to 226 °C; that for `COc1c(CC#N)c2c(c3c1OC(C)(C)C3)C(c1ccccc1)=NC(C)(C)C2` was 95 to 96 °C.
The value for `COc1ccc(/C(=C\C=C\C(=O)Oc2ccc([N+](=O)[O-])cc2)c2ccccc2OC)cc1` was 134 to 135 °C; that for `CC(C)(C)N1C(=O)c2cnc(CCl)cc2C1=O` was 62 to 64 °C.
